From patent publication US20240383915A1, “OXAZEPINE COMPOUNDS AND USES THEREOF IN THE TREATMENT OF CANCER” (Genentech, Inc., priority 2021, published 2024)

How the values were obtained:
KRas = KRas (Homo sapiens (Human), UniProt P01116); assay: KRas GDP HTRF (BODIPY-GDP exchange TR-FRET); format: biochemical
Method in brief: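 Inhibition of SOS1-mediated exchange of BODIPY-GDP on KRAS G12D, started with 3 nM recombinant human SOS1 and 300 nM BODIPY-GDP and read after 60 min. TR-FRET excitation 337 nm, ratio 520/490 nm ×10,000. IC50 from 4-parameter Hill fit of normalized data.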

PC-9 cells = assay: PC9 proliferation assay; format: cell-based, human; settings: Homo sapiens, PC-9, PC9; read-out: PC9 Prolif IC50 (G12V)
KRas(G12V) = KRas(G12V) (Homo sapiens (Human), UniProt P01116, G12V); assay: KRas(G12V) GDP HTRF (BODIPY-GDP exchange TR-FRET); format: biochemical
Sequence of KRas(G12V) (P01116-2 other isoform, or with tags, fused parts or gaps G12V): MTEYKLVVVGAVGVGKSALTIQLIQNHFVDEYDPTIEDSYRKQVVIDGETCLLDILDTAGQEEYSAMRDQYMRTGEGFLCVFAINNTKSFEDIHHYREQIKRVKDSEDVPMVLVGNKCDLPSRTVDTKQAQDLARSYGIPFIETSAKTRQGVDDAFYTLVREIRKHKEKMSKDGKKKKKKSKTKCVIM

SW480 cells = assay: SW480 proliferation assay; format: cell-based; settings: Homo sapiens, SW480, SW480; read-out: SW480 Prolif IC50 (G12V)

Sequence of KRas (P01116-2 other isoform, or with tags, fused parts or gaps): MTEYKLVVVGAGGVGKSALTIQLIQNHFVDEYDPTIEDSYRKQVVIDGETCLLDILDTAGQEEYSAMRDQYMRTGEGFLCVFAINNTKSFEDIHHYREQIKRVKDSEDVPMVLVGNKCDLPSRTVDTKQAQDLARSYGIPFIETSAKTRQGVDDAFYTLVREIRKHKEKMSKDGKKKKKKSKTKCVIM

Row | IC50 (KRas) | IC50 (PC-9 cells) | IC50 (KRas(G12V)) | IC50 (SW480 cells) | SMILES
1 | 4.49 nM | 2900 nM | 0.5 nM | 180 nM | Cc1cc(N)nc(-c2c(Cl)c3c4c(nc(OC[C@]5(C)CC(F)(F)CN5C)nc4c2F)N([C@H](C)c2cccnc2N)CCO3)c1C(F)(F)F (atropisomer, axis not shown) [Example 122a, 6-((R)-4-((R)-1-(2-aminopyridin-3-yl)ethyl)-8-chloro-2-(((S)-4,4-difluoro-1,2-dimethylpyrrolidin-2-yl)methoxy)-10-fluoro-5,6-dihydro-4H-[1,4]oxazepino[5,6,7-de]quinazolin-9-yl)-4-methyl-5-(trifluoromethyl)pyridin-2-amine]
2 | 0.204 nM | 2700 nM | 0.1 nM | 70 nM | Cc1cc(N)nc(-c2c(Cl)c3c4c(nc(OC[C@H]5CN(C)CCO5)nc4c2F)N([C@H](C)c2cccnc2N)CCO3)c1C(F)(F)F (atropisomer, axis not shown) [Example 124, 6-((R)-4-((R)-1-(2-aminopyridin-3-yl)ethyl)-8-chloro-10-fluoro-2-(((R)-4-methylmorpholin-2-yl)methoxy)-5,6-dihydro-4H-[1,4]oxazepino[5,6,7-de]quinazolin-9-yl)-4-methyl-5-(trifluoromethyl)pyridin-2-amine]
3 | 0.273 nM | 3200 nM | 0.13 nM | 39 nM | Cc1cc(N)nc(-c2c(Cl)c3c4c(nc(OC[C@@H]5C[C@@H](F)CN5C)nc4c2F)N([C@@H]2CCCc4ccnc(N)c42)CCO3)c1C(F)(F)F (atropisomer, axis not shown) [Example 132, (R)-8-((R)-9-(6-amino-4-methyl-3-(trifluoromethyl)pyridin-2-yl)-8-chloro-10-fluoro-2-(((2S,4R)-4-fluoro-1-methylpyrrolidin-2-yl)methoxy)-5,6-dihydro-4H-[1,4]oxazepino[5,6,7-de]quinazolin-4-yl)-5,6,7,8-tetrahydroisoquinolin-1-amine]
4 | 0.37 nM | 1500 nM | 0.08 nM | 390 nM | Cc1cc(N)nc(-c2c(Cl)c3c4c(nc(OCCN5CCN(C)CC5)nc4c2F)N([C@H](C)c2cccnc2N)CCO3)c1C(F)(F)F (atropisomer, axis not shown) [Example 135, 6-((R)-4-((R)-1-(2-aminopyridin-3-yl)ethyl)-8-chloro-10-fluoro-2-(2-(4-methylpiperazin-1-yl)ethoxy)-5,6-dihydro-4H-[1,4]oxazepino[5,6,7-de]quinazolin-9-yl)-4-methyl-5-(trifluoromethyl)pyridin-2-amine]
5 | 2.3 nM | 5600 nM | 0.75 nM | 180 nM | Cc1cc(N)nc(-c2c(Cl)c3c4c(nc(OCC5CCOCC5)nc4c2F)N([C@H](C)c2cccnc2N)CCO3)c1C(F)(F)F (atropisomer, axis not shown) [Example 152, 6-((R)-4-((R)-1-(2-aminopyridin-3-yl)ethyl)-8-chloro-10-fluoro-2-((tetrahydro-2H-pyran-4-yl)methoxy)-5,6-dihydro-4H-[1,4]oxazepino[5,6,7-de]quinazolin-9-yl)-4-methyl-5-(trifluoromethyl)pyridin-2-amine]

Continued, compound first:

Row | SMILES | IC50 (KRas) | IC50 (PC-9 cells) | IC50 (KRas(G12V)) | IC50 (SW480 cells)
6 | Cc1cc(N)nc(-c2c(Cl)c3c4c(nc(OC[C@@H]5CCC(=O)N5)nc4c2F)N([C@H](C)c2cccnc2N)CCO3)c1C(F)(F)F (atropisomer, axis not shown) [Example 121, (S)-5-((((R)-9-(6-amino-4-methyl-3-(trifluoromethyl)pyridin-2-yl)-4-((R)-1-(2-aminopyridin-3-yl)ethyl)-8-chloro-10-fluoro-5,6-dihydro-4H-[1,4]oxazepino[5,6,7-de]quinazolin-2-yl)oxy)methyl)pyrrolidin-2-one] | 0.437 nM | 4900 nM | 0.07 nM | 1100 nM
7 | Cc1cc(N)nc(-c2c(Cl)c3c4c(nc(OC[C@@]5(C)CC(F)(F)CN5C)nc4c2F)N([C@H](C)c2cccnc2N)CCO3)c1C(F)(F)F (atropisomer, axis not shown) [Example 122b, 6-((R)-4-((R)-1-(2-aminopyridin-3-yl)ethyl)-8-chloro-2-(((R)-4,4-difluoro-1,2-dimethylpyrrolidin-2-yl)methoxy)-10-fluoro-5,6-dihydro-4H-[1,4]oxazepino[5,6,7-de]quinazolin-9-yl)-4-methyl-5-(trifluoromethyl)pyridin-2-amine] | 0.202 nM | 9400 nM | 0.095 nM | 17 nM
8 | Cc1cc(N)nc(-c2c(Cl)c3c4c(nc(OCCn5cccn5)nc4c2F)N([C@H](C)c2cccnc2N)CCO3)c1C(F)(F)F (atropisomer, axis not shown) [Example 136, 6-((R)-2-(2-(1H-pyrazol-1-yl)ethoxy)-4-((R)-1-(2-aminopyridin-3-yl)ethyl)-8-chloro-10-fluoro-5,6-dihydro-4H-[1,4]oxazepino[5,6,7-de]quinazolin-9-yl)-4-methyl-5-(trifluoromethyl)pyridin-2-amine] | 0.83 nM | 8600 nM | 0.21 nM | 63 nM
9 | Cc1cc(N)nc(-c2c(Cl)c3c4c(nc(OCC5(C#N)CCOCC5)nc4c2F)N([C@H](C)c2cccnc2N)CCO3)c1C(F)(F)F (atropisomer, axis not shown) [Example 142, 4-((((R)-9-(6-amino-4-methyl-3-(trifluoromethyl)pyridin-2-yl)-4-((R)-1-(2-aminopyridin-3-yl)ethyl)-8-chloro-10-fluoro-5,6-dihydro-4H-[1,4]oxazepino[5,6,7-de]quinazolin-2-yl)oxy)methyl)tetrahydro-2H-pyran-4-carbonitrile] | 1.1 nM | 7700 nM | 0.31 nM | 120 nM
10 | Cc1cc(N)nc(-c2c(Cl)c3c4c(nc(OCC5(C)CCOCC5)nc4c2F)N([C@H](C)c2cccnc2N)CCO3)c1C(F)(F)F (atropisomer, axis not shown) [Example 144, 6-((R)-4-((R)-1-(2-aminopyridin-3-yl)ethyl)-8-chloro-10-fluoro-2-((4-methyltetrahydro-2H-pyran-4-yl)methoxy)-5,6-dihydro-4H-[1,4]oxazepino[5,6,7-de]quinazolin-9-yl)-4-methyl-5-(trifluoromethyl)pyridin-2-amine] | 4.4 nM | 6000 nM | 1.4 nM | 520 nM
11 | Cc1cc(N)nc(-c2c(Cl)c3c4c(nc(OC[C@H]5C[C@H](O)C5)nc4c2F)N([C@H](C)c2cccnc2N)CCO3)c1C(F)(F)F (atropisomer, axis not shown) [Example 145, (1R,3r)-3-((((R)-9-(6-amino-4-methyl-3-(trifluoromethyl)pyridin-2-yl)-4-((R)-1-(2-aminopyridin-3-yl)ethyl)-8-chloro-10-fluoro-5,6-dihydro-4H-[1,4]oxazepino[5,6,7-de]quinazolin-2-yl)oxy)methyl)cyclobutan-1-ol] | 1.2 nM | 20000 nM | 0.56 nM | 450 nM
12 | Cc1cc(N)nc(-c2c(Cl)c3c4c(nc(OC[C@H]5C[C@@H](O)C5)nc4c2F)N([C@H](C)c2cccnc2N)CCO3)c1C(F)(F)F (atropisomer, axis not shown) [Example 146, (1S,3s)-3-((((R)-9-(6-amino-4-methyl-3-(trifluoromethyl)pyridin-2-yl)-4-((R)-1-(2-aminopyridin-3-yl)ethyl)-8-chloro-10-fluoro-5,6-dihydro-4H-[1,4]oxazepino[5,6,7-de]quinazolin-2-yl)oxy)methyl)cyclobutan-1-ol] | 1.5 nM | 19000 nM | 0.61 nM | 510 nM
13 | Cc1cc(N)nc(-c2c(Cl)c3c4c(nc(OCC56CCCN5CCC6)nc4c2F)N([C@H](C)c2cccnc2N)CCO3)c1C(F)(F)F (atropisomer, axis not shown) [Example 147, 6-((R)-4-((R)-1-(2-aminopyridin-3-yl)ethyl)-8-chloro-10-fluoro-2-((tetrahydro-1H-pyrrolizin-7a(5H)-yl)methoxy)-5,6-dihydro-4H-[1,4]oxazepino[5,6,7-de]quinazolin-9-yl)-4-methyl-5-(trifluoromethyl)pyridin-2-amine] | 0.18 nM | 1300 nM | 0.06 nM | 44 nM
14 | Cc1cc(N)nc(-c2c(Cl)c3c4c(nc(OCC5CCN(S(C)(=O)=O)CC5)nc4c2F)N([C@H](C)c2cccnc2N)CCO3)c1C(F)(F)F (atropisomer, axis not shown) [Example 148, 6-((R)-4-((R)-1-(2-aminopyridin-3-yl)ethyl)-8-chloro-10-fluoro-2-((1-(methylsulfonyl)piperidin-4-yl)methoxy)-5,6-dihydro-4H-[1,4]oxazepino[5,6,7-de]quinazolin-9-yl)-4-methyl-5-(trifluoromethyl)pyridin-2-amine] | 3.6 nM | 9600 nM | 1.1 nM | 410 nM
15 | Cc1cc(N)nc(-c2c(Cl)c3c4c(nc(OCCF)nc4c2F)N([C@H](C)c2cccnc2N)CCO3)c1C(F)(F)F (atropisomer, axis not shown) [Example 151, 6-((R)-4-((R)-1-(2-aminopyridin-3-yl)ethyl)-8-chloro-10-fluoro-2-(2-fluoroethoxy)-5,6-dihydro-4H-[1,4]oxazepino[5,6,7-de]quinazolin-9-yl)-4-methyl-5-(trifluoromethyl)pyridin-2-amine] | 5.4 nM | 14000 nM | 1.1 nM | 700 nM
